# Assay results published in US20260317324A1, “BIFUNCTIONAL COMPOUNDS FOR DEGRADING BRAF VIA UBIQUITIN PROTEOSOME PATHWAY” (Nurix Therapeutics, Inc., priority 2023, published 2026).
# Target: T1, BRAF V600E (Homo sapiens, UniProt P15056, V600E)
# T1 construct: endogenous C-terminal HiBiT fusion tag on BRAF V600E allele; endogenous in cells; host or cells: A375 clone 1F10 (CRISPR-Cas9 knock-in of the HiBiT tag; parental A375 from ATCC)
# Test: BRAF HiBiT degradation assay, C-terminal HiBiT-tagged BRAF V600E A375 cells (clone 1F10), Nano-Glo HiBiT Lytic assay
# Format: cell-based
# Conditions: for Dmax: A-375
# In short: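 Using CRISPR-engineered A375 cells that carry a C-terminal HiBiT tag on endogenous BRAF V600E, remaining protein was quantified by lytic luminescence relative to DMSO-treated cells, with wildtype A375 as the background control. DC50 denotes the concentration giving 50% degradation.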
# [1] = A375 (BRAF V600E), DC50 at 50%: fitted conc. at Y=50
# [2] = A375 (BRAF V600E), percentage protein degraded at maximal compound effect relative to DMSO
# T1 sequence (P15056 whole entry V600E, the tested form may be a part): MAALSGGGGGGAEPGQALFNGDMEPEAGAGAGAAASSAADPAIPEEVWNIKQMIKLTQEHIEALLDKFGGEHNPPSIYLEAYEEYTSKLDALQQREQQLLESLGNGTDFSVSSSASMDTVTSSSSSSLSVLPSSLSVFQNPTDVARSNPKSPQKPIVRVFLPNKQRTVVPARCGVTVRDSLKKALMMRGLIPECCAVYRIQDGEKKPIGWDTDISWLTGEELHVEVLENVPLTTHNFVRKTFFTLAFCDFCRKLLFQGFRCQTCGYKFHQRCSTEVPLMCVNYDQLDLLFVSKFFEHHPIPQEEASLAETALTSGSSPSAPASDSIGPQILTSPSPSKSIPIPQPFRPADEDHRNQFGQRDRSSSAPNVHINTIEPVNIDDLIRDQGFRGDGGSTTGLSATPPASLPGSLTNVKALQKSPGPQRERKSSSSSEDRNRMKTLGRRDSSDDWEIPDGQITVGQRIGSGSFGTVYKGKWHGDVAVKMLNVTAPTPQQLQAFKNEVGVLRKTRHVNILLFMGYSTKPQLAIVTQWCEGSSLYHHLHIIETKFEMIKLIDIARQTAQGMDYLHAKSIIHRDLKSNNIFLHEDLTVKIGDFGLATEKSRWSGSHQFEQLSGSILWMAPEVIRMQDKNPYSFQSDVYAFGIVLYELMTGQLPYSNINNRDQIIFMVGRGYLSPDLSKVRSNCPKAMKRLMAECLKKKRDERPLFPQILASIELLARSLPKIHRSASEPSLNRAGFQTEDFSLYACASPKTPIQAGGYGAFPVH
SMILES,DC50 [1],Dmax [2],"DC50 (A375 (BRAF V600E, Class 1), DC50 at 50% degradation)","Dmax (A375 (BRAF V600E, Class 1), observed Dmax, % protein degraded relative to DMSO control)"
"CCCS(=O)(=O)Nc1cccc(-c2nc(C3CCC4(CC3)CCN(C(=O)C[C@H]3CCN(c5ccc(C6CCC(=O)NC6=O)cc5)C3)CC4)sc2-c2ccnc(N)n2)c1F (mixture of isomers) [Compound 253, N-{3-[5-(2-aminopyrimidin-4-yl)-2-(3-{2-[(3R)-1-{4-[(3RS)-2,6-dioxopiperidin-3-yl]phenyl}pyrrolidin-3-yl]acetyl}-3-azaspiro[5.5]undecan-9-yl)-1,3-thiazol-4-yl]-2-fluorophenyl}propane-1-sulfonamide]",,,10 to 50 nM,30 to 70%
"CCCS(=O)(=O)Nc1cccc(-c2cn(-c3ccc(C(=O)N4CCN(C(=O)C5CCN(c6ccc(C7CCC(=O)NC7=O)cc6)CC5)CC4)cc3)nc2-c2ccncc2)c1F (racemic) [Compound 14, Rac-N-[3-(1-{4-[4-(1-{4-[(3R)-2,6-dioxopiperidin-3-yl]phenyl}piperidine-4-carbonyl)piperazine-1-carbonyl]phenyl}-3-(pyridin-4-yl)-1H-pyrazol-4-yl)-2-fluorophenyl]propane-1-sulfonamide]",50 to 500 nM,30 to 70%,,
"CCCS(=O)(=O)Nc1cccc(-c2cn(C3CCN(C(=O)C4CCN(C(=O)C5CCN(c6ccc(C7CCC(=O)NC7=O)cc6)CC5)CC4)CC3)nc2-c2ccncc2)c1F (racemic) [Compound 9, Rac-N-[3-(1-{1-[1-(1-{4-[(3R)-2,6-dioxopiperidin-3-yl]phenyl}piperidine-4-carbonyl)piperidine-4-carbonyl]piperidin-4-yl}-3-(pyridin-4-yl)-1H-pyrazol-4-yl)-2-fluorophenyl]propane-1-sulfonamide]",50 to 500 nM,> 70%,,
"CCCS(=O)(=O)Nc1cccc(-c2nc(C(C)(C)C)sc2-c2ccnc(Nc3cccc(OC4CCN(CC5CCN(c6ccc7c(=O)n(C8CCC(=O)NC8=O)ccc7c6)CC5)CC4)c3)n2)c1F (racemic) [Compound 71, Rac-N-{3-[2-tert-butyl-5-(2-{[3-({1-[(1-{2-[(3R)-2,6-dioxopiperidin-3-yl]-1-oxo-1,2-dihydroisoquinolin-6-yl}piperidin-4-yl)methyl]piperidin-4-yl}oxy)phenyl]amino}pyrimidin-4-yl)-1,3-thiazol-4-yl]-2-fluorophenyl}propane-1-sulfonamide]",10 to 50 nM,30 to 70%,,
"CCCS(=O)(=O)Nc1cccc(-c2nc(C(C)(C)C)sc2-c2ccnc(Nc3ccc(C4CCN(C(=O)CN5CCC6(CC5)CN(c5ccc7c(c5)C(=O)N(C5CCC(=O)NC5=O)C7=O)C6)CC4)cc3)n2)c1F (racemic) [Compound 153, Rac-N-[3-(2-tert-butyl-5-{2-[(4-{1-[2-(2-{2-[(3R)-2,6-dioxopiperidin-3-yl]-1,3-dioxo-2,3-dihydro-1H-isoindol-5-yl}-2,7-diazaspiro[3.5]nonan-7-yl)acetyl]piperidin-4-yl}phenyl)amino]pyrimidin-4-yl}-1,3-thiazol-4-yl)-2-fluorophenyl]propane-1-sulfonamide]",50 to 500 nM,30 to 70%,,
"CCCS(=O)(=O)Nc1cccc(-c2cn(-c3ccc(C(=O)N4CCN(CC5CCN(c6ccc([C@H]7CCC(=O)NC7=O)cc6)CC5)CC4)cc3)nc2-c2ccncc2)c1F [Compound 11, N-{3-[1-(4-{4-[(1-{4-[(3R)-2,6-dioxopiperidin-3-yl]phenyl}piperidin-4-yl)methyl]piperazine-1-carbonyl}phenyl)-3-(pyridin-4-yl)-1H-pyrazol-4-yl]-2-fluorophenyl}propane-1-sulfonamide]",50 to 500 nM,30 to 70%,,
"CCCS(=O)(=O)Nc1cccc(-c2nc(C(C)(C)C)sc2-c2ccnc(Nc3cccc(C4CCN(C(=O)[C@@H]5CCN(c6ccc(C7CCC(=O)NC7=O)cn6)C5)CC4)c3)n2)c1F (mixture of isomers) [Compound 102, N-[3-(2-tert-butyl-5-{2-[(3-{1-[(3R)-1-{5-[(3RS)-2,6-dioxopiperidin-3-yl]pyridin-2-yl}pyrrolidine-3-carbonyl]piperidin-4-yl}phenyl)amino]pyrimidin-4-yl}-1,3-thiazol-4-yl)-2-fluorophenyl]propane-1-sulfonamide]",10 to 50 nM,30 to 70%,,
"CCCS(=O)(=O)Nc1cccc(-c2nc(C(C)(C)C)sc2-c2ccnc(Nc3cnn(CC4CCN(C(=O)CN5CCN(c6cc(C7CCC(=O)NC7=O)ccn6)CC5)CC4)c3)n2)c1F (racemic) [Compound 113, Rac-N-{3-[2-tert-butyl-5-(2-{[1-({1-[2-(4-{4-[(3R)-2,6-dioxopiperidin-3-yl]pyridin-2-yl}piperazin-1-yl)acetyl]piperidin-4-yl}methyl)-1H-pyrazol-4-yl]amino}pyrimidin-4-yl)-1,3-thiazol-4-yl]-2-fluorophenyl}propane-1-sulfonamide]",10 to 50 nM,> 70%,,
"CCCS(=O)(=O)Nc1cccc(-c2nc(C(C)(C)C)sc2-c2ccnc(NC3CC4(C3)CN(C(=O)C3CCN(c5cccc6c5n(C)c(=O)n6C5CCC(=O)NC5=O)CC3)C4)n2)c1F (racemic) [Compound 160, Rac-N-{3-[2-tert-butyl-5-(2-{[2-(1-{1-[(3R)-2,6-dioxopiperidin-3-yl]-3-methyl-2-oxo-2,3-dihydro-1H-1,3-benzodiazol-4-yl}piperidine-4-carbonyl)-2-azaspiro[3.3]heptan-6-yl]amino}pyrimidin-4-yl)-1,3-thiazol-4-yl]-2-fluorophenyl}propane-1-sulfonamide]",,30 to 70%,,
"CCCS(=O)(=O)Nc1cccc(-c2nc(C(C)(C)C)sc2-c2ccnc(Nc3ccc4c(c3)CCN(C(=O)[C@@H]3CCN(c5ccc(C6CCC(=O)NC6=O)cn5)C3)C4)n2)c1F (mixture of isomers) [Compound 121, N-(3-{2-tert-butyl-5-[2-({2-[(3R)-1-{5-[(3RS)-2,6-dioxopiperidin-3-yl]pyridin-2-yl}pyrrolidine-3-carbonyl]-1,2,3,4-tetrahydroisoquinolin-6-yl}amino)pyrimidin-4-yl]-1,3-thiazol-4-yl}-2-fluorophenyl)propane-1-sulfonamide]",50 to 500 nM,30 to 70%,,

# Continued, values first:
DC50 [1],Dmax [2],"DC50 (A375 (BRAF V600E, Class 1), DC50 at 50% degradation)","Dmax (A375 (BRAF V600E, Class 1), observed Dmax, % protein degraded relative to DMSO control)",SMILES
10 to 50 nM,30 to 70%,,,"CCCS(=O)(=O)Nc1cccc(-c2nc(C(C)(C)C)sc2-c2ccnc(NC3CC4(CCN(C(=O)CN5CCN(c6ccc7c(c6)C(=O)N(C6CCC(=O)NC6=O)C7=O)CC5)CC4)C3)n2)c1F (racemic) [Compound 132, Rac-N-(3-{2-tert-butyl-5-[2-({7-[2-(4-{2-[(3R)-2,6-dioxopiperidin-3-yl]-1,3-dioxo-2,3-dihydro-1H-isoindol-5-yl}piperazin-1-yl)acetyl]-7-azaspiro[3.5]nonan-2-yl}amino)pyrimidin-4-yl]-1,3-thiazol-4-yl}-2-fluorophenyl)propane-1-sulfonamide]"
10 to 50 nM,> 70%,,,"CCN(C)S(=O)(=O)Nc1cccc(-c2nc(C)sc2-c2ccnc(Nc3ccc(N4CCN(CC5(C)CCN(c6ccc(C7CCC(=O)NC7=O)cn6)CC5)CC4)cn3)n2)c1F (racemic) [Compound 34, Rac-(3S)-3-{6-[4-({4-[6-({4-[4-(3-{[ethyl(methyl)sulfamoyl]amino}-2-fluorophenyl)-2-methyl-1,3-thiazol-5-yl]pyrimidin-2-yl}amino)pyridin-3-yl]piperazin-1-yl}methyl)-4-methylpiperidin-1-yl]pyridin-3-yl}piperidine-2,6-dione]"
10 to 50 nM,30 to 70%,,,"CCCS(=O)(=O)Nc1cccc(-c2nc(C(C)(C)C)sc2-c2ccnc(Nc3ccc(C4CCN(C(=O)C5CCN(c6ccc(C7CCC(=O)NC7=O)cc6)CC5)CC4)cc3)n2)c1F (racemic) [Compound 37, Rac-N-(3-{2-tert-butyl-5-[2-({4-[1-(1-{4-[(3R)-2,6-dioxopiperidin-3-yl]phenyl}piperidine-4-carbonyl)piperidin-4-yl]phenyl}amino)pyrimidin-4-yl]-1,3-thiazol-4-yl}-2-fluorophenyl)propane-1-sulfonamide]"
10 to 50 nM,30 to 70%,,,"CCCS(=O)(=O)Nc1cccc(-c2nc(C(C)(C)C)sc2-c2ccnc(Nc3cnn(CC4CCN(CC5CCN(c6ccc(C(=O)NC7CCC(=O)NC7=O)nc6)CC5)CC4)c3)n2)c1F (racemic) [Compound 82, Rac-5-(4-{[4-({4-[(4-{2-tert-butyl-4-[2-fluoro-3-(propane-1-sulfonamido)phenyl]-1,3-thiazol-5-yl}pyrimidin-2-yl)amino]-1H-pyrazol-1-yl}methyl)piperidin-1-yl]methyl}piperidin-1-yl)-N-[(3R)-2,6-dioxopiperidin-3-yl]pyridine-2-carboxamide]"
< 10 nM,> 70%,,,"CCCS(=O)(=O)Nc1cccc(-c2nc(-c3ccc(N4CCN(C(=O)C5CCN(c6ccc(C7CCC(=O)NC7=O)cn6)CC5)CC4)cc3)sc2-c2ccnc(N)n2)c1F (racemic) [Compound 188, Rac-N-{3-[5-(2-aminopyrimidin-4-yl)-2-{4-[4-(1-{5-[(3R)-2,6-dioxopiperidin-3-yl]pyridin-2-yl}piperidine-4-carbonyl)piperazin-1-yl]phenyl}-1,3-thiazol-4-yl]-2-fluorophenyl}propane-1-sulfonamide]"
< 10 nM,> 70%,,,"CCN(C)S(=O)(=O)Nc1cccc(-c2nc(C(C)(C)C)sc2-c2ccnc(Nc3ccc(N4CCN(C(=O)C5CN(c6ccc(C7CCC(=O)NC7=O)cn6)C5)CC4)cn3)n2)c1F (racemic) [Compound 53, Rac-(3S)-3-[6-(3-{4-[6-({4-[2-tert-butyl-4-(3-{[ethyl(methyl)sulfamoyl]amino}-2-fluorophenyl)-1,3-thiazol-5-yl]pyrimidin-2-yl}amino)pyridin-3-yl]piperazine-1-carbonyl}azetidin-1-yl)pyridin-3-yl]piperidine-2,6-dione]"
